Experimental data taken from the C3SDB collision cross section collection.

Conditions: instrument: TW, calibrated with polyalanine and drug standards

Compound | collision cross section (N2) ([M+H]+) [Å²] | other results
CC(C)CC(NC(=O)OCC1c2ccccc2-c2ccccc21)C(=O)O (stereo in doubt) [N- (9-FLUORENYLMETHOXYCARBONYL)-L-LEUCINE] |  | collision cross section (N2) ([M+Na]+): 183.3 Å²
COc1cc(OC)cc(OC)c1 [1,3,5-TRIMETHOXYBENZENE] | 130.6 | 
CC1(C)C2CC(=O)[C@]3(C)C(CC[C@@]4(C)[C@H](c5ccoc5)OC(=O)C5OC543)[C@@]2(C)[C@@H](O)C[C@H]1O (stereo partly specified) [1,3-DIDEACETYL-7-DEACETOXY-7-OXOKHIVORIN] | 200.2 | 
COc1cc(O)c(C(=O)/C=C/c2ccc(OC)c(O)c2)c(OC)c1 [2',3-DIHYDROXY-4,4',6'-TRIMETHOXYCHALCONE] | 177.1 | 
COc1ccc(/C=C/C(=O)c2ccc(O)cc2O)cc1 [2',4'-DIHYDROXY-4-METHOXYCHALCONE] | 162.2 | 
O=C(/C=C/c1ccccc1)c1ccc(O[C@@H]2O[C@H](CO)[C@@H](O)[C@H](O)[C@H]2O)cc1O [2',4'-DIHYDROXYCHALCONE 4'-GLUCOSIDE] | 200.6 | 
O=C(/C=C/c1ccc(O)cc1)c1ccccc1O [2',4-DIHYDROXYCHALCONE] | 153 | 
COc1ccc(/C=C/C(=O)c2cc(O)ccc2O)cc1 [2',5'-DIHYDROXY-4-METHOXYCHALCONE] | 162.1 | 
COc1ccc(-c2coc3cc(O)ccc3c2=O)c(OC)c1 [2'-METHOXYFORMONETIN] | 164.6 | 
COc1ccc(C(=O)c2ccc(O)cc2)c(O)c1O [2,3,4'-TRIHYDROXY-4-METHOXYBENZOPHENONE] | 152.9 | 
CCOc1ccc(C(=O)c2ccc(O)c(O)c2O)cc1 [2,3,4-TRIHYDROXY-4'-ETHOXYBENZOPHENONE] | 160.4 | 
COc1cc(O)c(C)c(O)c1 [2,6-DIHYDROXY-4-METHOXYTOLUENE] | 127.1 | 
COc1cc(OC)c2c(=O)c(-c3ccccc3)c(C)oc2c1OC [2-METHYL-5,7,8-TRIMETHOXYISOFLAVONE] | 173.6 | 
COc1ccc(-c2oc3cc(OC)c(OC)c(OC)c3c(=O)c2OC)cc1 [3,4',5,6,7-PENTAMETHOXYFLAVONE] | 181.9 | 
COc1ccc(-c2oc3ccccc3c(=O)c2OC)cc1 [3,4'-DIMETHOXYFLAVONE] | 159.1 | 
COc1ccc2oc(-c3ccccc3)c(OC)c(=O)c2c1 [3,6-DIMETHOXYFLAVONE] | 159.9 | 
COC(=O)C[C@H]1C(C)(C)[C@@H](O)[C@@H]2CC3=C4CC(O)O[C@@H](c5ccoc5)[C@]4(C)CCC3[C@@]1(C)C2=O (stereo partly drawn) [3,16-DIDEOXYMEXICANOLIDE-3beta-DIOL] |  | collision cross section (N2) ([M+Na]+): 202.8 Å²
CC(=O)O[C@H]1C[C@@H](O)C(C)(C)C2C[C@@H](OC(C)=O)[C@]3(C)C(CC[C@@]4(C)[C@H](c5ccoc5)OC(=O)C5OC543)[C@]21C (stereo partly specified) [3-DEACETYLKHIVORIN] | 215.9 | 
CC(=O)O[C@H]1CC[C@@]2(C)C(C[C@@H](OC(C)=O)[C@@]3(C)C4=CC(=O)O[C@@H](c5ccoc5)[C@]4(C)CCC23)C1(C)C (stereo partly drawn) [3-DEOXO-3beta-ACETOXYDEOXYDIHYDROGEDUNIN] | 219.7 | 
C=C1[C@H]2CC[C@@]3(C)[C@H](c4ccoc4)OC(=O)C[C@]13O[C@H]1C[C@H](O)C(C)(C)[C@H](CC(=O)OC)[C@]12C [3-DEOXY-3beta-HYDROXYANGOLENSIC ACID METHYL ESTER] | 204.1 | 
COc1cccc(O)c1O [3-METHOXYCATECHOL] | 124.7 | 

Compound | collision cross section (N2) ([M+H]+) [Å²] | other results
CC1(C)CC23C(=O)CCC(O)C2(C)CCC13 (stereo unspecified) [3-NOR-3-OXOPANASINSAN-6-OL] | 146.1 | 
S=c1ccss1 [3H-1,2-DITHIOLE-3-THIONE] | 120.4 | 
CC(=O)O[C@@H]1CC[C@@]2(C)C(C[C@@H](OC(C)=O)[C@@]3(C)C4=CC(=O)O[C@@H](c5ccoc5)[C@]4(C)CCC23)C1(C)C (stereo partly drawn) [3alpha-ACETOXYDIHYDRODEOXYGEDUNIN] | 218 | 
CC(=O)O[C@H]1CC[C@@]2(C)C(C[C@@H](OC(C)=O)[C@]3(C)C2CC[C@@]2(C)[C@H](c4ccoc4)OC(=O)[C@H]4O[C@]423)C1(C)C (stereo partly drawn) [3beta-ACETOXYDEOXODIHYDROGEDUNIN] | 219.2 | 
CC(=O)O[C@@H]1CC2C(C)(CC[C@H](O)C2(C)C)C2CC[C@]3(C)C(=CC(=O)O[C@H]3c3ccoc3)C21C (stereo partly drawn) [3beta-HYDROXYDEOXODIHYDRODEOXYGEDUNIN] | 207.1 | 
COc1ccc(C(=O)/C=C/c2ccccc2)cc1 [4'-METHOXYCHALCONE] | 153.8 | 
Cc1c(O)c(=O)n(-c2ccccc2)n1C [4-HYDROXYANTIPYRINE] | 141.4 | 
COc1ccc(-c2cc(=O)c3c(O)cc(OC)c(OC)c3o2)c(OC)c1 [5-HYDROXY-2',4',7,8-TETRAMETHOXYFLAVONE] | 182 | 
COc1ccc(-c2coc3cc(OC)ccc3c2=O)cc1 [7,4'-DIMETHOXYISOFLAVONE] | 160.3 | 
Cn1c(=O)c2[nH]c(C3CCCC3)nc2n(C)c1=O [8-CYCLOPENTYLTHEOPHYLLINE] | 158.6 | 
COC(=O)C[C@H]1C(C)(C)C2(O)OC34CC2C(=O)[C@]1(C)C3CC[C@]1(C)C4=CC(=O)O[C@H]1c1ccoc1 (stereo partly drawn) [8beta-HYDROXYCARAPIN, 3,8-HEMIACETAL] | 208.8 | 
CC[C@@]1(O)C(=O)OCc2c1cc1n(c2=O)Cc2cc3cc(O)ccc3nc2-1 [10-HYDROXYCAMPTOTHECIN] | 187 | 
COc1ccc2c(c1)OC1(O)COc3cc(OC)c(OC)cc3C1=C2 (stereo unspecified) [12a-HYDROXY-5-DEOXYDEHYDROMUNDUSERONE] |  | collision cross section (N2) ([M+H-H2O]+): 173 Å²
COc1ccc(-c2cc(=O)c3c(OC(C)=O)cc(OC(C)=O)cc3o2)cc1 [ACACETIN DIACETATE] | 184.8 | 
CC(=O)OC1CN2CCC1CC2 (stereo unspecified) [ACECLIDINE] | 136.2 | 
CC(=O)Nc1ccc(S(=O)(=O)c2ccc(NC(C)=O)cc2)cc1 [ACEDAPSONE] | 171.2 | 
CC(=O)c1ccc(S(=O)(=O)NC(=O)NC2CCCCC2)cc1 [ACETOHEXAMIDE] | 178.2 | 
CC(=O)N[C@@H](Cc1c[nH]c2ccccc12)C(=O)O [ACETYLTRYPTOPHAN] | 152.3 | 
Nc1nc(=O)c2ncn(COCCO)c2[nH]1 [ACYCLOVIR] | 146.5 | 
Nc1ncnc2c1ncn2[C@@H]1O[C@H](COP(=O)(O)O)[C@@H](O)[C@H]1O [ADENOSINE PHOSPHATE] | 167.6 | 
